The record followed here is patent US20060240494A1, “Biocidal molecules, macromolecular targets and methods of production and use” (priority 2000, published 2006).

Residues, ends and D or L forms follow the SMILES beside them. *: point of attachment. 5FAM = O=C1OC2(c3ccc(O)cc3Oc3cc(O)ccc32)c2ccc(C(=O)*)cc21

For assay [1], the target named is T1, S. aureus DnaK 554-585 (D-E helix fragment) (Staphylococcus aureus, UniProt P45554).
T1 sequence (P45554 554-585 limits assumed): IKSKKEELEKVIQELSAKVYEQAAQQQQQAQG
The assay is described as follows: Fluorescence polarization with S. aureus DnaK D-E helix fragment. Type of assay: binding.

The target in assay [2] is E. coli DnaK fragment aa397-439 (conventional peptide binding pocket) (Escherichia coli, UniProt P0A6Y8). The experiment in a line: Fluorescence polarization with DnaK fragment aa397-439. The following applies: PBS; qualitative. In general terms: In fluorescence polarisation assays a small probe gives low polarisation when free and higher when bound to something large.
For assay [3], the target named is blocked E. coli DnaK fragment aa591-615 (Escherichia coli, UniProt P0A6Y8). It counts as binding. To be noted: PBS; qualitative.
The target in assay [4] is DnaK (Escherichia coli, UniProt P0A6Y8). The assay is described as follows: Fluorescence polarization binding of fluorescein-labeled peptides to DnaK. Further details: purchased; host or cells: E. coli; species or system E. coli. The following applies: for minipolarization value: peptide 1 nM, blank about 62. The text has this: (§1) All solid-phase assays that separate the bound form of the ligand from the free form are suspect.
(§2) In one example, three fluorescein-labeled peptides were synthesized with the fluorescein label attached at the N-terminus of the peptide: fluorescein-K-pyrrhocoricin (N-F-pyrrhocoricin), fluorescein-K-drosocin (unglycosylated; N-F-drosocin), and fluorescein-K-apidaecin (N-F-apidaecin). […] Biophys. Acta, 1426: 459-467; McManus, A. et al, (1999) Biochemistry, 38: 705-714].
(§3) During fluorescence polarization, positive signals are detected only when the free rotation of the fluorescein attached to one of the interacting partners is slowed down due to binding to the other partner when this label is not exceedingly far from the site of interaction. If the label is placed too far from the binding site, the flexibility of peptide-like structures will resume free rotation of the fluorescein moiety, resulting in no polarization anisotropy, even if positive binding occurs. As a negative control fluorescein-labeled peptide, a fragment of the […] of human tubulin was used [Otvos, L., Jr. et al, (1998) Protein and Peptide Lett., 5: 207-213].
The same heat shock proteins and LPS preparations were used as in the Western-blotting, except DnaJ was not studied. Ras was used as a negative control protein. The fluorescein-K-pyrrhocoricin—DnaK binding study was repeated with an additional DnaK preparation, purchased from another source. The labeled peptides were used in fixed 1 nM concentrations. […] The initial concentration of LPS was set to 0.5 mg/ml, and dilutions were made until 0.031 mg/ml.

Assay [5] deals with GroEL (Escherichia coli, UniProt P0A6F5). The experiment in a line: Fluorescence polarization binding of fluorescein-labeled peptides to GroEL. On the set-up: purchased; host or cells: E. coli; species or system E. coli. The following applies: peptide 1 nM, blank about 62.
Description: as §1, §2, §3
The same heat shock proteins and LPS preparations were used as in the Western-blotting, except DnaJ was not studied. Ras was used as a negative control protein. […]

The target in assay [6] is T2, GroES (Escherichia coli, UniProt P0A6F9).
T2 construct: purchased; host or cells: E. coli
The experiment in a line: Fluorescence polarization binding of fluorescein-labeled peptides to GroES. The following applies: GroES at both concentrations (4 μM and 2 μM); peptide 1 nM; blank about 62. The text has this: (§4) All solid-phase assays that separate the bound form of the ligand from the free form are suspect. Therefore, in the next step, the binding of labeled peptides to the heat shock/chaperone proteins and to LPS was observed by fluorescence polarization.
(§5) In one example, three fluorescein-labeled peptides were synthesized with the fluorescein label attached at the N-terminus of the peptide: fluorescein-K-pyrrhocoricin (N-F-pyrrhocoricin), fluorescein-K-drosocin (unglycosylated; N-F-drosocin), and fluorescein-K-apidaecin (N-F-apidaecin). A C-terminally labeled peptide was also made, i.e., pyrrhocoricin-K-fluorescein (C-F-pyrrhocoricin). The C-terminally labeled pyrrhocoricin peptide (C-F-pyrrhocoricin) was made to investigate the possibility of spatial separation of the active sites. From earlier experiments, it was clear that pyrrhocoricin and drosocin bind to the receptor(s) with their two terminal domains [Hoffmann, R. et al, (1999) Biochim. Biophys. Acta, 1426: 459-467; McManus, A. et al, (1999) Biochemistry, 38: 705-714].
(§6) During fluorescence polarization, positive signals are detected only when the free rotation of the fluorescein attached to one of the interacting partners is slowed down due to binding to the other partner when this label is not exceedingly far from the site of interaction. […]

The subject of assay [7] is Ras. The experiment in a line: Fluorescence polarization binding of fluorescein-labeled peptides to Ras (negative control protein). The following applies: Ras at both concentrations (4 μM and 2 μM); peptide 1 nM; blank about 62.
Description: as §4, §5, §6

Assay [8] addresses E. coli DnaK aa513-551 (A-B helix fragment) (Escherichia coli, UniProt P0A6Y8). The assay is described as follows: Fluorescence polarization with DnaK A-B helix fragment. Type of assay: binding.
The target in assay [9] is E. coli DnaK aa596-637 (Escherichia coli, UniProt P0A6Y8). The assay is described as follows: Fluorescence polarization with DnaK extreme C-terminus fragment. It counts as binding. The following applies: PBS; qualitative.
Assay [10] addresses T3, Hsp60 (Homo sapiens, UniProt P10809).
T3 construct: purchased; host or cells: E. coli
The assay is described as follows: Fluorescence polarization binding of fluorescein-labeled peptides to Hsp60. To be noted: peptide 1 nM, blank about 62.
Description: as §4, §5, §6

Assay [11] concerns the target T4, GrpE (Escherichia coli, UniProt P09372).
T4 construct: purchased; host or cells: E. coli
The experiment in a line: Fluorescence polarization binding of fluorescein-labeled peptides to GrpE. The following applies: GrpE at both concentrations (4 μM and 2 μM); peptide 1 nM; blank about 62.
Description: as §4, §5, §6

The target of assay [12] is E. coli DnaK fragment aa583-615 (D-E helix hinge) (Escherichia coli, UniProt P0A6Y8). The experiment in a line: Fluorescence polarization with synthetic DnaK fragment aa583-615. Type of assay: binding. The following applies: Tris HCl at pH 8.0; labeled peptide 1 nM. As to the method:
The binding of the synthetic DnaK fragments to their fluorescein-labeled pyrrhocoricin counterparts was also assessed in solution, by fluorescence polarization [Lundblad, J. R. et al, (1996) Mol. Endocrinol. 10: 607-612]. For these experiments, the unlabeled peptides were serially diluted in PBS (pH 7.4) or 0.1 M Tris-HCl (pH 8.0) containing 0.1 M ethylene-diamine-tetraacetic acid (EDTA) in 50 μL final volume in 6×50 mm disposable glass borosilicate tubes. The fluoresceinated peptides were added to each tube in a 50 μL aliquot to a final concentration of 1 nM and tubes were incubated at 37° C. for 5 minutes. The extent of fluorescence anisotropy was measured on a Beacon 2000 fluorescence polarization instrument (PanVera, Madison, Wis.) and calculated as millipolarization values. The filters used were 485 nm excitation and 535 nm emission with 3 nm band width. Non-linear curve fitting was done by using a dose-response logistical transition [y=a0+a1/(1+x/a2)^a^3] and the Levenberg-Marquardt Algorithm within the SlideWrite software package. The provided Kd value (a2 coefficient) was calculated by the program.
To quantitatively characterize the pyrrhocoricin—D-E helix interaction, the complete binding curves were measured for E. coli DnaK fragments aa583-615 and aa588-615, both of SEQ ID NO: 10.

The target in assay [13] is Hsp70 (Homo sapiens, UniProt P0DMV8). The assay is described as follows: Fluorescence polarization binding of fluorescein-labeled peptides to Hsp70. To be noted: Hsp70 at both concentrations (4 μM and 2 μM); peptide 1 nM; blank about 62. On the set-up: purchased; host or cells: E. coli.
Description: as §4, §5, §6

DnaK, sequence (P0A6Y8 whole entry): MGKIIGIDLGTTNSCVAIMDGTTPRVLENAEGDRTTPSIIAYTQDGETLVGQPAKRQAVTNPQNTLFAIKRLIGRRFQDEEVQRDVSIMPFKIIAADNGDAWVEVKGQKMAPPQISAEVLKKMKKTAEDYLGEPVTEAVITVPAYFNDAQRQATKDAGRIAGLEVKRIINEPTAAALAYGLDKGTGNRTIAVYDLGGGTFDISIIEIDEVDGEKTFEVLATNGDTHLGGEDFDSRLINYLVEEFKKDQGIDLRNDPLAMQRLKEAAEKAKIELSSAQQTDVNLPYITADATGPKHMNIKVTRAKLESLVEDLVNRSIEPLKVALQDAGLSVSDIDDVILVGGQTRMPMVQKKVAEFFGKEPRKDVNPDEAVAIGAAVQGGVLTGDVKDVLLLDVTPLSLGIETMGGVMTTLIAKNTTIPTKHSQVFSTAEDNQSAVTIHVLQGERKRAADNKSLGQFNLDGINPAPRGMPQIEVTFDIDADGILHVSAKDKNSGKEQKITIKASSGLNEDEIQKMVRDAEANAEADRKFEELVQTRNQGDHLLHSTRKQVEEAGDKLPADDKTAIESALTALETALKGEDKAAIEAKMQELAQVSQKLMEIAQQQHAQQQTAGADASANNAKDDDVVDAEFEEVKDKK
T3 sequence (P10809 27-573): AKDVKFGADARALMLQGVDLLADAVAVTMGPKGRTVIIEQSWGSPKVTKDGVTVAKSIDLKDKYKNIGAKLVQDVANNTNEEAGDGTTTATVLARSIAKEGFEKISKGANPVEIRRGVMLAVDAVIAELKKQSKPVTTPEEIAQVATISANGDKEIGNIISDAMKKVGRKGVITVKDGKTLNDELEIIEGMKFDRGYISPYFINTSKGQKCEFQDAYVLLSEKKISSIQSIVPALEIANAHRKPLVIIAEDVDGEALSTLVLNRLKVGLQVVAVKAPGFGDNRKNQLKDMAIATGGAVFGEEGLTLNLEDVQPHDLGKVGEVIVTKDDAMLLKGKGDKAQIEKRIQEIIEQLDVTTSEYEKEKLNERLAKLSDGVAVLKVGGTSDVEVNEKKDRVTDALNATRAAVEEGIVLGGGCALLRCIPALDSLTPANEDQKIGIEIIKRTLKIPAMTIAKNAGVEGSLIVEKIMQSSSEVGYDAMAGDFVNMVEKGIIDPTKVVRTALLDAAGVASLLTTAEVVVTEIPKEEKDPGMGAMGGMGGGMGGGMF
E. coli DnaK aa513-551 (A-B helix fragment), sequence (P0A6Y8 514-552 limits assumed): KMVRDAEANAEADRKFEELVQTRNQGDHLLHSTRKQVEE
GroEL, sequence (P0A6F5 2-548 limits assumed): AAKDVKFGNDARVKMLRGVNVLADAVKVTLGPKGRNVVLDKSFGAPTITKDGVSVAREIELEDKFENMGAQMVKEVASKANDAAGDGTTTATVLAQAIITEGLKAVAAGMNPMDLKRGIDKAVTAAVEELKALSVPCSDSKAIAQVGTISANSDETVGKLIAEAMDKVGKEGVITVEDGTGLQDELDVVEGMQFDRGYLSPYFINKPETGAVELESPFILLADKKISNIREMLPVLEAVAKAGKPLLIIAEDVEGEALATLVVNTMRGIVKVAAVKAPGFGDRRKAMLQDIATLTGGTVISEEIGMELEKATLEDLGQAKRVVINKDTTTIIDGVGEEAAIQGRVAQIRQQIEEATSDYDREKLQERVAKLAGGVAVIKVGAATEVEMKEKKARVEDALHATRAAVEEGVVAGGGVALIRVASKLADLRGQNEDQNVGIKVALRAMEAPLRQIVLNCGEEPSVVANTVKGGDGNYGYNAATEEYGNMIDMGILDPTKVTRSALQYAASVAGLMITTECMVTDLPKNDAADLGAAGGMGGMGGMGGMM
T2 sequence (P0A6F9 whole entry): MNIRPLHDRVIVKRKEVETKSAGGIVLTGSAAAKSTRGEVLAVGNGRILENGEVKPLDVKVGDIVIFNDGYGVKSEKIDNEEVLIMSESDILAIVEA
E. coli DnaK fragment aa583-615 (D-E helix hinge), sequence (P0A6Y8 584-616): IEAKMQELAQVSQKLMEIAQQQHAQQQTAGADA
blocked E. coli DnaK fragment aa591-615, sequence (P0A6Y8 592-616 limits assumed): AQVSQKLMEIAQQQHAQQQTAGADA
E. coli DnaK fragment aa397-439 (conventional peptide binding pocket), sequence (P0A6Y8 397-439): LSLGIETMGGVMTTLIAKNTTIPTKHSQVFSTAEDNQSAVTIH
Hsp70, sequence (P0DMV8 whole entry): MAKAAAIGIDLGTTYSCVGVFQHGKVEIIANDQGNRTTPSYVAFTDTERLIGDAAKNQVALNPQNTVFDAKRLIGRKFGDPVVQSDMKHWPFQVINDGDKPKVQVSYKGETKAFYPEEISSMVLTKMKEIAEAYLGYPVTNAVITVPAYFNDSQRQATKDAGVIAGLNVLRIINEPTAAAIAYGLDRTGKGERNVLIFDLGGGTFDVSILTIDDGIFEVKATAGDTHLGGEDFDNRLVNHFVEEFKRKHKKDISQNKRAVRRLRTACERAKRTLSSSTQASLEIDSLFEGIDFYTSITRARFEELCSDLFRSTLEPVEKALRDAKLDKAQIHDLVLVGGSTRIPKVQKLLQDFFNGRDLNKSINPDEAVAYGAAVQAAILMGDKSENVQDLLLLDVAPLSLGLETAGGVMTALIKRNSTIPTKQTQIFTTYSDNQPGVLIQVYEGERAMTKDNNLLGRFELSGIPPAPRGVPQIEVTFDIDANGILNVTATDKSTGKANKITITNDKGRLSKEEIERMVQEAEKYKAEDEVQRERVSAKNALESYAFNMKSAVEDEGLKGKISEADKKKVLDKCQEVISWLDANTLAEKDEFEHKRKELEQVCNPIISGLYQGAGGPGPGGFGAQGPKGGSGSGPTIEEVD
E. coli DnaK aa596-637, sequence (P0A6Y8 597-638): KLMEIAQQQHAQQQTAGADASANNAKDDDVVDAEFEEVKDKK
T4 sequence (P09372 whole entry): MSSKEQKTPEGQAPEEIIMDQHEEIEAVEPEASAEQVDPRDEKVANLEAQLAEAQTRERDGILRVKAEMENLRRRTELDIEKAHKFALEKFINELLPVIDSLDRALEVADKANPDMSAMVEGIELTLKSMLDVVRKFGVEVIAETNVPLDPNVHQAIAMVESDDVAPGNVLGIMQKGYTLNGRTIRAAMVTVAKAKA

With `CC[C@H](C)[C@H](NC(=O)[C@@H]1CCCN1C(=O)[C@H](CCCNC(=N)N)NC(=O)[C@@H]1CCCN1C(=O)[C@@H]1CCCN1C(=O)[C@@H](NC(=O)[C@@H]1CCCN1C(=O)[C@H](CCCNC(=N)N)NC(=O)[C@@H]1CCCN1C(=O)[C@H](CC(C)C)NC(=O)[C@H](Cc1ccc(O)cc1)NC(=O)[C@H](CO)NC(=O)CNC(=O)[C@H](CCCCN)NC(=O)[C@H](CC(=O)O)NC(=O)[C@@H](NC(=O)[C@H](CCCCN)NC(=O)c1ccc2c(c1)C(=O)OC21c2ccc(O)cc2Oc2cc(O)ccc21)C(C)C)[C@@H](C)O)C(=O)N[C@@H](Cc1ccc(O)cc1)C(=O)N[C@@H](CC(N)=O)C(=O)N[C@@H](CCCNC(=N)N)C(=O)N[C@@H](CC(N)=O)C(=O)O` [N—F-pyrrhocoricin] (5FAM-KVDKGSYLPRPTPPRPIYNRN-OH; C-terminus assumed), the “binding to D-E helix fragment of S. aureus DnaK” value in assay [1] (PBS, qualitative) is reported as “No interaction above the level of the negative control”. For the same compound, the “binding to S. aureus D-E helix fragment” value in [1] (Tris HCl at pH 8.0) is “did not bind”. Besides, in assay [2], the “binding to fragment aa397-439” value is reported as “weakly”. In addition, the “binding to blocked E. coli DnaK fragment aa591-615” value in [3] is reported as “bound strongly”. Further, the “millipolarization values higher over the background” value in assay [4] (1 nM peptide bound to DnaK) amounted to 50%. For the same compound, the minipolarization value result is reported as “about 95” in assay [4] (2 μM DnaK); “about 100” in [4] (4 μM DnaK); “about 85” in assay [5] (2 μM Gro EL); “over 100” in assay [5] (4 μM Gro EL); “under 62” in assay [6]; “under 62” in [7]. In addition, the minipolarization value result in assay [10] (2 μM Hsp60) is given as “about 62”; in assay [10] (4 μM Hsp60), “about 90”; in [11], “under 62”; in [13], “under 62”. Further, the “binding to E. coli A-B helix fragment” value in assay [8] (PBS, qualitative) is on record as “No interaction above the level of the negative control”; in assay [8] (Tris HCl at pH 8.0), “did not bind”. In [9], the “binding to E. coli extreme C-terminus fragment” value is given as “No interaction above the level of the negative control”. In addition, the “binding to E. coli D-E helix hinge region aa583-615” value in [12] was “concentration-dependent binding”.
